Values belong to the molecule of their own block, whether it stands above or below them. Activity calls are given as the source filed them.
Tests used:
[1] = test system: HEK293; experiment: inhibitors of LMP1-driven NF-kB reporter, dose response, cell-based, HEK293, luciferase, cherry-pick (AID 588343); assay type: functional; conditions: Homo sapiens
[2] = HepG2 cell cytotoxicity, dose response, cytotoxicity control for Shn3 inhibitor project, CellTiter-Glo, cherry-picked (AID 624134); assay type: functional, cell-based
[3] = inhibitors of PGC1a acetylation in cells, dose response, cell-based, cherry-picked samples (AID 720514); assay type: functional;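 further: potency may reflect raised or lowered acetylation signal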
[4] = HEK293T cytotoxicity, dose response, cytotoxicity control for miR-122 modulator project, cell-based, inhibitor set, cherry-pick, set 2 (AID 720697); assay type: functional
[5] = miR-122 activators in hepatoma reporter cells, dose response, cell-based, Huh7 psiCHECK-miR122, Renilla luciferase, cherry-picked (AID 651956); assay type: functional;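 further: huh7 hepatoma cells stably carrying a psiCHECK-2 miR-122 sensor plasmid; renilla luciferase signal reporting endogenous miR-122 activity after 48 h compound exposure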
[6] = Shn3 3'UTR reporter inhibitors, dose response, cell-based, Clone20 osteoblasts, firefly luciferase, cherry-picked (AID 624132); assay type: functional;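 further: firefly luciferase luminescence from reporter carrying the Shn3 3'UTR in osteoblasts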
[7] = HEK293T cytotoxicity, dose response, cytotoxicity control for miR-122 modulator project, cell-based, activator set, cherry-pick (AID 720690); assay type: functional;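 further: HEK293T human cells scored for general mammalian cytotoxicity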
[8] = control 3'UTR Renilla luciferase suppression, dose response, counter-screen for Shn3 inhibitor project, cell-based, Clone20-Shn3RL, cherry-picked (AID 624133); assay type: functional
[9] = T. cruzi growth inhibition in host cells, dose response, cell-based, plate reader, dry powder, set 2 (AID 652275); assay type: functional
[10] = Dose-response inhibition of insulin secretion in a rat insulinoma line at 5 mM glucose (AID 1117331); assay type: functional, cell-based; conditions: INS-1E
[11] = target: Induced myeloid leukemia cell differentiation protein Mcl-1 (Homo sapiens, UniProt Q07820); assay type: functional
[12] = target: NS3 (Hepatitis C virus, UniProt A3EZJ3); experiment: PubChem AID 2173; design: species or system Hepacivirus hominis
[13] = target: Albumin (Bos taurus, UniProt P02769); experiment: Counterscreen for inhibitors of T-cell receptor (TCR)-CD3 interaction: Fluorescence-based biochemical high throughput dose response assay to identify inhibitors of T-cell receptor (TCR)-CD3 interaction using a TAMRA-labeled BSA probe.; assay type: functional
[14] = A375 melanoma cell viability loss, dose response, counter-screen for MITF inhibitor project, CellTiter-Glo luminescence, dry powder, set 4 (AID 624364); assay type: functional, cell-based; conditions: A-375;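 further: A375 melanoma cells are MITF independent so this is a counter screen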
[15] = A375 melanoma cell cytotoxicity, dose response, counter-screen for MITF inhibitor project, CellTiter-Glo luminescence, dry powder, set 2 (AID 624489); assay type: functional, cell-based; conditions: A-375;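 further: actives are compounds lowering A375 viability meaning general cytotoxicity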
[16] = cells; assay type: functional, cell-based
[17] = target: T1, Corticotropin-releasing factor receptor 2/Corticotropin-releasing factor-binding protein (Homo sapiens, UniProt P24387+Q13324); experiment: activators of CRF receptor 2 with binding protein – uHTS hits, confirmation (AID 602473); assay type: functional; conditions: read-out: EC50_Mean
T1 sequence (Q13324 whole entry): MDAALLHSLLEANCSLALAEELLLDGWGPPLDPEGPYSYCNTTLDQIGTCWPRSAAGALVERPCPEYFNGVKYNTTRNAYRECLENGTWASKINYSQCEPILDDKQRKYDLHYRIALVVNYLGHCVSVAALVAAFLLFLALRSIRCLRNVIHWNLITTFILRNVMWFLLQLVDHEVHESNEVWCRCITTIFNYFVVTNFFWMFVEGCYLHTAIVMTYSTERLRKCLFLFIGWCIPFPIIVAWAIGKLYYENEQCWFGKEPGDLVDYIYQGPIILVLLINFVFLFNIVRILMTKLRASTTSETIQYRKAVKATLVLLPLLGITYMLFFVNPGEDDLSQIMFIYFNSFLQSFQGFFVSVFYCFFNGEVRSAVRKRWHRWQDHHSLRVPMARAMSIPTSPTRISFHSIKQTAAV
T1 sequence (P24387 whole entry): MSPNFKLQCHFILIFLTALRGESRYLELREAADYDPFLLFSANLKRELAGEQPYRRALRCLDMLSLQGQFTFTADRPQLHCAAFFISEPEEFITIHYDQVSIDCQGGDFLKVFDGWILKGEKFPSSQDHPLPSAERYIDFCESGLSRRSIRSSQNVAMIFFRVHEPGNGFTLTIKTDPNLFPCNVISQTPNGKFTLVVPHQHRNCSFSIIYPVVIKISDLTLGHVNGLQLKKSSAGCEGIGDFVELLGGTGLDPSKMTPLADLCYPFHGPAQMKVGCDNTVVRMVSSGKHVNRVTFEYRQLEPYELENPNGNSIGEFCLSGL

[18] = target: T1, Corticotropin-releasing factor receptor 2/Corticotropin-releasing factor-binding protein; experiment: Dose Response confirmation of uHTS hits for small molecule antagonists of the CRF-binding protein and CRF-R2 receptor complex.; assay type: functional; conditions: read-out: IC50_Mean
[19] = target: T2, Nuclear receptor subfamily 0 group B member 1 (Homo sapiens, UniProt P51843); assay type: functional, cell-based;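 further: HEK293T cells transfected with SF-1 and DAX-1 plus StAR promoter luciferase reporter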
T2 sequence (P51843 whole entry): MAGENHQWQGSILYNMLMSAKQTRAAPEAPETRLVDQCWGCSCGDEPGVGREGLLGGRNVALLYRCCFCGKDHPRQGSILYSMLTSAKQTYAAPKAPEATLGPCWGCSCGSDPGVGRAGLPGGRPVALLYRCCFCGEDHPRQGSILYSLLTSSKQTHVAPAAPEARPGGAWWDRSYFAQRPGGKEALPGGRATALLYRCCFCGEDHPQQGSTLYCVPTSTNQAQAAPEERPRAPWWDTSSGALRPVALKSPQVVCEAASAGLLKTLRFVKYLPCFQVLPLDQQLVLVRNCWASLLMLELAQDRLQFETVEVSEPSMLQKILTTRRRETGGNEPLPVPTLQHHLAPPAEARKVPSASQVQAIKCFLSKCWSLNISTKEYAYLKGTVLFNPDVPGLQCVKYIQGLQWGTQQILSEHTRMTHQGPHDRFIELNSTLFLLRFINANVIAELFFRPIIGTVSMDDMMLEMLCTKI

[20] = target: Disintegrin and metalloproteinase domain-containing protein 17 (Homo sapiens, UniProt P78536); experiment: ADAM17 protease inhibitors, dose response, counter-screen for ADAM10 exosite inhibitor project, biochemical, quenched FRET substrate (AID 743253)
[21] = ADAM10 inhibitors, peptide cleavage, dose response, biochemical, QFRET (AID 743254);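 further: ADAM10 enzyme with the DM2 quenched FRET peptide as substrate; EDANS fluorescence gain as the protease cuts the substrate; inhibitor potency against ADAM10 proteolytic activity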
[22] = P. falciparum Dd2 growth inhibitors, dose response, SYBR Green, dry powder samples, set 9 (AID 1159568); assay type: functional, cell-based

Chain of Albumin (P02769 whole entry): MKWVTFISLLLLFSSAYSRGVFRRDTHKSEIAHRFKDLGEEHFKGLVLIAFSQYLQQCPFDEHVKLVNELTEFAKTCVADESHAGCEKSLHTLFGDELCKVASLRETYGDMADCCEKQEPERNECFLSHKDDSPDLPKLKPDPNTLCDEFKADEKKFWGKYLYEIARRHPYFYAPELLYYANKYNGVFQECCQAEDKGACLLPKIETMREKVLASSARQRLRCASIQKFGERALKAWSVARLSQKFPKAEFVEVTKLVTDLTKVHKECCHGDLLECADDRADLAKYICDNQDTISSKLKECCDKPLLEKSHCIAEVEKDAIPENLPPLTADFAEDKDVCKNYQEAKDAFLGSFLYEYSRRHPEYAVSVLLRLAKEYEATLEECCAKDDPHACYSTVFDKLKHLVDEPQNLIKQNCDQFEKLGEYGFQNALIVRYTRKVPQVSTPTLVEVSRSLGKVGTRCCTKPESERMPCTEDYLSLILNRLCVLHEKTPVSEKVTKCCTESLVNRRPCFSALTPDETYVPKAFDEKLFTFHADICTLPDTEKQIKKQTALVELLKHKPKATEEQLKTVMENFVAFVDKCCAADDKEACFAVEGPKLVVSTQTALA
Chain of Induced myeloid leukemia cell differentiation protein Mcl-1 (Q07820 whole entry): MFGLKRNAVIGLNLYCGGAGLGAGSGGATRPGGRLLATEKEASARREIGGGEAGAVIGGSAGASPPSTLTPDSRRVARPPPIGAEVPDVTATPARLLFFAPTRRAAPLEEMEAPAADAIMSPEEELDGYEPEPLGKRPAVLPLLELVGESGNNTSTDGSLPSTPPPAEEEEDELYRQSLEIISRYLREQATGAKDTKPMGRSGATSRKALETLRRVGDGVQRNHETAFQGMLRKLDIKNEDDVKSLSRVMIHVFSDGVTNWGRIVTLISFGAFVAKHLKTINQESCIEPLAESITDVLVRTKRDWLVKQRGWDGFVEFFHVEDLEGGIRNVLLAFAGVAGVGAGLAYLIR
Chain of NS3 (A3EZJ3 whole entry): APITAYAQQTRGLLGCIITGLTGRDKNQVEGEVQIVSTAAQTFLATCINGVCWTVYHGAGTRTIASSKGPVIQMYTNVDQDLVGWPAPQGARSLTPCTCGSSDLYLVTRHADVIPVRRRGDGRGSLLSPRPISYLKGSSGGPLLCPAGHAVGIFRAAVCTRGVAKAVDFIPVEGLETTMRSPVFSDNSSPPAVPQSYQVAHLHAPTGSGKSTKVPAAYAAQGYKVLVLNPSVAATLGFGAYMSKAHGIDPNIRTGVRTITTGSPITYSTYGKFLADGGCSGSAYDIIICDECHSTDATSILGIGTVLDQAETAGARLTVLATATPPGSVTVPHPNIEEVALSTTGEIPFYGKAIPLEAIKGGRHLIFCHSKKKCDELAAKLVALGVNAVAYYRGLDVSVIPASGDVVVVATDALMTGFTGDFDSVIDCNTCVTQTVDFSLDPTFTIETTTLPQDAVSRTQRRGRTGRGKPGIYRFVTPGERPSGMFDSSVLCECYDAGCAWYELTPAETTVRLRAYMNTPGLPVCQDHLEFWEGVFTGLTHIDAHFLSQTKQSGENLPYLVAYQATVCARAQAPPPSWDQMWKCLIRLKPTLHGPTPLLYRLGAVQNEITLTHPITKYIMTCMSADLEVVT
Chain of Disintegrin and metalloproteinase domain-containing protein 17 (P78536 whole entry, the tested form may be a part): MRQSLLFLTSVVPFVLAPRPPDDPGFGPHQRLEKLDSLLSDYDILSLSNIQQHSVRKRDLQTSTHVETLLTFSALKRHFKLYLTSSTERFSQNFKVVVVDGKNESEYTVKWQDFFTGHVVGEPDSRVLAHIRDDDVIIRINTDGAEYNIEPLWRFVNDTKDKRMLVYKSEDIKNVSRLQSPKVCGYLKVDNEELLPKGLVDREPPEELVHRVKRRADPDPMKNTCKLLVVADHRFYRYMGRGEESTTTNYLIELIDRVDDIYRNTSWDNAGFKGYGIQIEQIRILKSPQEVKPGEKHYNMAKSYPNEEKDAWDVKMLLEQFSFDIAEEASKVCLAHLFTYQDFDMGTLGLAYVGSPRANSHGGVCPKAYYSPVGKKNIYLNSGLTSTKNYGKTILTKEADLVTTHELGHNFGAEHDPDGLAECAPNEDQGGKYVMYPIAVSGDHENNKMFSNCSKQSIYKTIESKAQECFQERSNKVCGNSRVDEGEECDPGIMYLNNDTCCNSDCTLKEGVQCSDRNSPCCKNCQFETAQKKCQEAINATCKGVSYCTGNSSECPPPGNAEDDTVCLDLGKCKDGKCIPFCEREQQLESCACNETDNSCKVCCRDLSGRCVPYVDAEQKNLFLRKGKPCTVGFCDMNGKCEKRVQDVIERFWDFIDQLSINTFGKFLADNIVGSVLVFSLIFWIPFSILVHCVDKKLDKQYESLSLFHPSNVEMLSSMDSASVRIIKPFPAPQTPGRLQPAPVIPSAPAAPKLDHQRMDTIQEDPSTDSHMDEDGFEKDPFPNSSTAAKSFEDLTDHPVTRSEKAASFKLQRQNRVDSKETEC

Structure (SMILES): CCN1CCN(Cc2ccc(NC(=O)c3ccc(C)c(NC(=O)c4cnc5cc(C(F)(F)F)ccc5c4O)c3)cc2C(F)(F)F)CC1
AC50 [1]: 2.74 µM (active) | AC50 [2]: 5.71 µM (active) | AC50 [3]: 5.48 µM (active) | AC50 [4]: 4.86 µM (active) | AC50 [5]: 5.11 µM (active) | AC50 [6]: 3.13 µM (active) | AC50 [7]: 4.48 µM (active) | AC50 [8]: 6.23 µM (active)

Structure (SMILES): O=C(CN1CCOCC1)N1CCCCN2[C@@H](CO)[C@H](c3ccc(-c4ccccc4F)cc3)[C@@H]2C1
AC50 [9]: 0.84 µM (active)

Structure (SMILES): CC(C(O)c1ccccc1)N(C)CCOC(c1ccccc1)c1ccccc1 (stereo not given) [DIFETEROL]
IC50 [10]: > 33.3 µM (inactive)

Structure (SMILES): CC(C)N1C[C@H](C)[C@@H](CN(C)Cc2ccc(Oc3ccccc3)cc2)Oc2c(C(=O)Nc3ccncc3)cccc2C1=O
AC50 [9]: 0.167 µM (active)

IC50 [11]: 1.22 µM (active) | IC50 [12]: 3.91 µM (active) | IC50 [13]: > 94.1 µM (inactive)
Structure (SMILES): Nc1c(C(=O)NCC2CCCO2)sc2nc3c(c(-c4ccco4)c12)CC/C3=C\c1ccco1 (stereo not given)

Structure (SMILES): O=C(NC1=C(N2CCOCC2)C(=O)c2ccccc2C1=O)c1ccccc1
AC50 [14]: 34.6 µM (active) | AC50 [15]: 31.9 µM (active)

Structure (SMILES): Cn1ccc(C(=O)Nc2sc3c(c2C(N)=O)CCCCC3)n1
IC50 [16]: > 67.5 µM (inactive) | EC50 [17]: > 53 µM (inactive) | IC50 [18]: > 47.1 µM (inactive) | IC50 [19]: > 2.5 µM (active)

Structure (SMILES): O=C(NC1=C(N2CCSCC2)C(=O)c2ccccc2C1=O)c1ccccc1
AC50 [14]: 40.7 µM (active) | AC50 [15]: 26.9 µM (active)

IC50 [20]: > 69.5 µM (inactive) | IC50 [21]: 8.03 µM (active)
Structure (SMILES): CC1(Cc2ccc(Cl)c(Cl)c2)C(=O)Nc2ccc(S(=O)(=O)NC3CCCCC3)cc21 (stereo not given)

Structure (SMILES): N#C[C@@H]1[C@H](c2ccccc2C2=CCCCC2)[C@H](CO)N1S(=O)(=O)c1ccccc1
AC50 [22]: 13.1 µM (active)

— ChEMBL document CHEMBL1201862, “PubChem BioAssay data set” (2004)
